Some targets named below: human CYP2C19 (Homo sapiens, UniProt P33261); human CYP2D6 (Homo sapiens, UniProt P10635); CYP3A4 (Homo sapiens, UniProt P08684); human CYP2C9 (Homo sapiens, UniProt P11712).
A further data set concerns the target T1, human CYP1A2 (Homo sapiens, UniProt P05177).
T1 sequence (P05177 1-516): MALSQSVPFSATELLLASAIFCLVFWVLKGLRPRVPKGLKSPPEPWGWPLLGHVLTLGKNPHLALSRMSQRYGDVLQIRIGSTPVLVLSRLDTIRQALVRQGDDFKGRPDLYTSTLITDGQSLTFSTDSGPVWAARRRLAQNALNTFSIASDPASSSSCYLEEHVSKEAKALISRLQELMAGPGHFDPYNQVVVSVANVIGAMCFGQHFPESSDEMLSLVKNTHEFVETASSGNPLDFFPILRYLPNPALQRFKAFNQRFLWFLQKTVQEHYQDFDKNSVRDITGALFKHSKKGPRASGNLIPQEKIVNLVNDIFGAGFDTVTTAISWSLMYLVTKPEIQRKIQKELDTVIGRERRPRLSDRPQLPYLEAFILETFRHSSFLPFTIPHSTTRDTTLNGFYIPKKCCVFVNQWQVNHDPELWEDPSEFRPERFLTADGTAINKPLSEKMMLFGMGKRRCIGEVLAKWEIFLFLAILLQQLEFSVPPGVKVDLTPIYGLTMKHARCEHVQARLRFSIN

Chain of human CYP2C19 (P33261 whole entry): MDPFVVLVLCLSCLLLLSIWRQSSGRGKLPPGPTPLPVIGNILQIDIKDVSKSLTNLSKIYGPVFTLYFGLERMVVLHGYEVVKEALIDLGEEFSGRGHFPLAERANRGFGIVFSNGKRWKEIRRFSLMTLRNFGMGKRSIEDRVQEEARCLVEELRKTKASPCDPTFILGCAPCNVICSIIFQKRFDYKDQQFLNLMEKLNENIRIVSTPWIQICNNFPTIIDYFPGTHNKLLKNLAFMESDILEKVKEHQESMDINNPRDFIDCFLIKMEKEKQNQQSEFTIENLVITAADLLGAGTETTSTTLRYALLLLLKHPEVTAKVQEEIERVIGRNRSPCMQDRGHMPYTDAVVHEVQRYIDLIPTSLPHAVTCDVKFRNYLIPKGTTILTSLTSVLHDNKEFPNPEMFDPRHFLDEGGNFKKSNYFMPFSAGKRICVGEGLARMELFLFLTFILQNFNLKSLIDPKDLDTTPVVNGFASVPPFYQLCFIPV
Chain of human CYP2D6 (P10635 whole entry): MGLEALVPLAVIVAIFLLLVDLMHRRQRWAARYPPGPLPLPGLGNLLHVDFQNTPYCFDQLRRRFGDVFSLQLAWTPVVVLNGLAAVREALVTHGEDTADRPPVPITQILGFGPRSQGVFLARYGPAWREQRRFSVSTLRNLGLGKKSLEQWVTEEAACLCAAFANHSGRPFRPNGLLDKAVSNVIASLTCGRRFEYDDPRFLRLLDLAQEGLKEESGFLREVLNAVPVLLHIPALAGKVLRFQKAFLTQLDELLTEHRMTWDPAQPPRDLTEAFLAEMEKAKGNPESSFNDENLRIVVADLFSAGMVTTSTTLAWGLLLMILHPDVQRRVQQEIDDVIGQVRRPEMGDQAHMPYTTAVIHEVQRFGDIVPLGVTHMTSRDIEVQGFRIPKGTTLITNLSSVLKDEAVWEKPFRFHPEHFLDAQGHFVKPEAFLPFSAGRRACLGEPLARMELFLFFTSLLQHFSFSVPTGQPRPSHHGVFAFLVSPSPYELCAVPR
Chain of CYP3A4 (P08684 whole entry): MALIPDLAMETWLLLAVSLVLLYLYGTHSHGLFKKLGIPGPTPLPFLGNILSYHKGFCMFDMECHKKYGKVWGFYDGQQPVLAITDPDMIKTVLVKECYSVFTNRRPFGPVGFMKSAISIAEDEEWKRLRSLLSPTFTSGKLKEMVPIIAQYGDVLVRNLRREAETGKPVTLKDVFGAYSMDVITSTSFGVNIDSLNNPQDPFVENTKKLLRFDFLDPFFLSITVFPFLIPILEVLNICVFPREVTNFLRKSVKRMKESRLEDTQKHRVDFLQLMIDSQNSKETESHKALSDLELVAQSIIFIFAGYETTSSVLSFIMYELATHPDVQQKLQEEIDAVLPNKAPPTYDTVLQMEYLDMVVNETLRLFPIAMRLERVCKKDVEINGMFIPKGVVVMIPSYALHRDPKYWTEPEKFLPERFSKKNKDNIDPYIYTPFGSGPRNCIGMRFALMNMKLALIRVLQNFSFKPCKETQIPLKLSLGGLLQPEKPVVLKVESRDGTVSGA
Chain of human CYP2C9 (P11712 whole entry): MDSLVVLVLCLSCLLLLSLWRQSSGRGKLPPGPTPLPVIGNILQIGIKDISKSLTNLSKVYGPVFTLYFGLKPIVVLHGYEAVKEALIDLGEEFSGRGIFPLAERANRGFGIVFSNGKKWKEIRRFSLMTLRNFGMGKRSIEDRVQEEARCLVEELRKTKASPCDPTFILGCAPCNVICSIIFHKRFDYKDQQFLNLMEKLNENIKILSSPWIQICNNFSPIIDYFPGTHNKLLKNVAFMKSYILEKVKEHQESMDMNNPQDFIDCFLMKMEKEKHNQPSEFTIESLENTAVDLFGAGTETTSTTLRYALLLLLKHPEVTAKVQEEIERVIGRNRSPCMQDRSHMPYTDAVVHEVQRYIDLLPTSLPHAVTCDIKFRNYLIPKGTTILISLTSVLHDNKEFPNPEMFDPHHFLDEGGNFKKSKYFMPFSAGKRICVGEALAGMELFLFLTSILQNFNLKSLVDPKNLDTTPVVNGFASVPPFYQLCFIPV

With `CCN(CC)c1ccc(C=O)c(O)c1` [4-(Diethylamino)salicylaldehyde], the results for the AC50 at human CYP2C19, on human CYP1A2 and at human CYP2C9 were 50.6 µM, 16.4 µM and 22.8 µM, respectively. The “CYP2D6 AC50 (half-maximal activity concentration)” value (shortened to “CYP2D6 AC50”) on human CYP2D6 is reported as “Inactive”. On CYP3A4, the “CYP3A4 AC50 (half-maximal activity concentration)” value (from here on “CYP3A4 AC50”) is reported as “Inactive”.

On to `Nc1ccc([N+](=O)[O-])c(C(F)(F)F)c1` [3-Trifluoromethyl-4-nitroanilide], for which the AC50 (usually the concentration giving half of the maximal activity seen) at human CYP2C19 amounted to 12.9 µM; at human CYP1A2 it was 8.83 µM; on human CYP2C9, 39.1 µM. Also, the “CYP2D6 AC50” value on human CYP2D6 is given as “Inactive”. In addition, the “CYP3A4 AC50” value at CYP3A4 is listed as “Inactive”.

In the case of `O=C(C=Cc1ccccc1)OCCc1ccccc1` [2-Phenylethyl 3-phenylprop-2-enoate], the AC50 at human CYP2C19 was found to be 20.8 µM; on CYP3A4 it was 15.7 µM; at human CYP1A2 it was 6.35 µM; at human CYP2C9 it was 25.6 µM. The “CYP2D6 AC50” value on human CYP2D6 is on record as “Inactive”.

Take `O=C(C=Cc1ccccc1)OCCCc1ccccc1` [3-Phenylpropyl cinnamate]: the AC50 at human CYP2C19 stood at 30.1 µM; on CYP3A4, 25.2 µM; on human CYP1A2, 12.2 µM; on human CYP2C9 it was 19.4 µM. Also, the “CYP2D6 AC50” value at human CYP2D6 was “Inactive”.

Consider `CCOP(=S)(OCC)Oc1cc(Cl)c(Br)cc1Cl` [Bromophos-ethyl], for which, at human CYP2C19 (human), the “CYP2C19 Efficacy (in parenthesis)” value is 0.71 ± 0.08 (-121 ± 12) %. On human CYP2D6, the “CYP2D6 IC50 (half-maximal inhibitory concentration)” value was “Inactive”. In addition, on CYP3A4, the “CYP3A4 Efficacy (in parenthesis)” value is listed as 1.97 ± 0.48 (-79 ± 2) %. In addition, the “CYP1A2 Efficacy (in parenthesis)” value on human CYP1A2 (human) was 3.3 ± 0.22 (-98 ± 3) %. The “CYP2C9 Efficacy (in parenthesis)” value at human CYP2C9 (human) is reported as 2.36 ± 0.42 (-102 ± 2) %.

Take `COc1ccc(C(=O)c2ccc(O)cc2)c(OC)c1` [2,4-Dimethoxy-4'-hydroxy benzophenone]: the AC50 is 6.52 µM on human CYP2C19, 31.7 µM on CYP3A4, 49.2 µM on human CYP1A2 and 0.64 µM on human CYP2C9. Further, the “CYP2D6 AC50” value on human CYP2D6 is on record as “Inconclusive inhibitor”.

In the case of `CN(C)C1CSSSC1.O=C(O)C(=O)O` [Thiocyclam oxalate], the AC50 on human CYP2C19 came to 38.5 µM; at human CYP2D6 it was 38.5 µM; at CYP3A4, 33 µM; on human CYP1A2, 61 µM; at human CYP2C9, 28.3 µM.

With `C[As+](C)(C)CC(=O)[O-]` [Arsenobetaine], the “CYP2C19 AC50 (half-maximal activity concentration)” value (“CYP2C19 AC50” for short) on human CYP2C19 is reported as “Inactive”. Besides, the “CYP2D6 AC50” value at human CYP2D6 is “Inactive”. This compound also showed an AC50 at CYP3A4 of 47.7 µM. Moreover, at human CYP1A2, the “CYP1A2 AC50 (half-maximal activity concentration)” value (from here on “CYP1A2 AC50”) is on record as “Inactive”. Besides, the “CYP2C9 AC50 (half-maximal activity concentration)” value (shortened to “CYP2C9 AC50”) on human CYP2C9 is on record as “Inactive”.

For the compound `CCOC(=O)CC(=O)Cc1cc(F)c(Cl)nc1Cl`, on human CYP2C19, the “CYP2C19 AC50” value is given as “Inconclusive inhibitor”. Further, the “CYP2D6 AC50” value on human CYP2D6 is “Inactive”. For the same compound, the AC50 on CYP3A4 came out at 49.1 µM; at human CYP1A2, 65.1 µM; on human CYP2C9, 46.3 µM.

As to `CCOC(=O)N1CCC(n2c(=O)[nH]c3cc(Cl)ccc32)CC1`, the AC50 amounted to 16.6 µM at human CYP2C19, 6.72 µM at CYP3A4, 22.6 µM at human CYP1A2 and 9.24 µM on human CYP2C9. Further, the “CYP2D6 AC50” value on human CYP2D6 is “Inactive”.

For the compound `CCc1cnc(C(=O)O)c(C(=O)O)c1` [5-Ethyl-2,3-pyridinedicarboxylic acid], the “CYP2C19 AC50” value on human CYP2C19 was “Inactive”. Moreover, on human CYP2D6, the “CYP2D6 AC50” value is “Inconclusive inhibitor”. The same compound registered an AC50 on CYP3A4 of 20.6 µM. The “CYP1A2 AC50” value at human CYP1A2 is recorded as “Inactive”. Besides, the “CYP2C9 AC50” value at human CYP2C9 is reported as “Inactive”.

With `CCCCCC=CCC1CC(=O)OC1=O` (centres unmarked) [2-Octen-1-ylsuccinic anhydride], the AC50 on human CYP2C19 stood at 55 µM; at CYP3A4, 31.9 µM; at human CYP1A2 it was 31.9 µM. Further, the “CYP2D6 AC50” value on human CYP2D6 is listed as “Inactive”. In addition, the “CYP2C9 AC50” value on human CYP2C9 is given as “Inactive”.

As to `COC(=O)Cc1cccc2ccccc12` [Methyl 1-naphthaleneacetate], the AC50 at human CYP2C19 came to 63.5 µM; on CYP3A4, 27.5 µM; on human CYP1A2 it was 18.8 µM; on human CYP2C9 it was 41.9 µM. The “CYP2D6 AC50” value at human CYP2D6 was “Inactive”.

Take `c1ccc(SCCSc2ccccc2)cc1` [1,2-Bis(phenylthio)ethane]: the AC50 was 3.06 µM on human CYP2C19; 56.1 µM on human CYP2D6; 8.36 µM at CYP3A4; 29.2 µM on human CYP1A2; 31.4 µM on human CYP2C9.

Turning to `CCOC(=O)COc1ccc2c(C)c(CCN(CC)CC)c(=O)oc2c1Cl.Cl` [Cloricromen hydrochloride], on human CYP2C19, the “CYP2C19 AC50” value is “Inactive”. Besides, the figures for the AC50 on human CYP2D6 and on CYP3A4 were 18.2 µM and 16.8 µM, respectively. The “CYP1A2 AC50” value at human CYP1A2 is listed as “Inconclusive inhibitor”. Also, the “CYP2C9 AC50” value at human CYP2C9 was “Inactive”.

For the compound `O=C(c1ccccc1)c1cccc(O)c1` [3-Hydroxybenzophenone], the AC50 at human CYP2C19 was determined as 23.9 µM; on human CYP2D6, 54.1 µM; at human CYP1A2, 36.2 µM; on human CYP2C9 it was 3.99 µM. Moreover, the “CYP3A4 AC50” value on CYP3A4 is given as “Inactive”.

Regarding `CCCCN1C(=O)c2ccccc2C1=O` [2-Butyl-1H-isoindole-1,3(2H)-dione], the AC50 is 26.6 µM at human CYP2C19, 25.6 µM on CYP3A4, 2.03 µM at human CYP1A2 and 50.6 µM on human CYP2C9. In addition, the “CYP2D6 AC50” value at human CYP2D6 is on record as “Inactive”.

With `C=C(C)C(=O)OCC(O)COc1ccc(C(C)(C)c2ccc(OCC(O)COC(=O)C(=C)C)cc2)cc1` (centres unmarked) [Bisphenol A glycidyl methacrylate], the AC50 at human CYP2C19 turned out to be 7.59 µM; at human CYP2D6 it was 37 µM; on CYP3A4, 3.3 µM; on human CYP1A2, 63.5 µM; at human CYP2C9 it was 3.46 µM.

Regarding `CC(C)(COC(=O)c1ccccc1)COC(=O)c1ccccc1` [Neopentyl glycol dibenzoate], the AC50 on human CYP2C19 worked out at 20.8 µM; on CYP3A4, 35.7 µM; on human CYP1A2, 47.7 µM; at human CYP2C9, 6.58 µM. Moreover, the “CYP2D6 AC50” value at human CYP2D6 is given as “Inactive”.

For the compound Naphthenic acids, the half-maximal activity concentration (AC50) was 46.4 µM at human CYP2C19, 84.8 µM at CYP3A4, 59.4 µM on human CYP1A2 and 36.4 µM at human CYP2C9. Also, the “CYP2D6 AC50” value at human CYP2D6 is “Inactive”.

Consider `BrCc1cccc(Oc2ccccc2)c1` [1-(Bromomethyl)-3-phenoxybenzene], for which the AC50 on human CYP2C19 is 19.9 µM; at human CYP2D6, 50.3 µM; on CYP3A4, 80 µM; on human CYP1A2, 41.5 µM; at human CYP2C9 it was 82.9 µM.

For `CCOC(=O)c1ccc(NC(=O)CN2CCCCC2)cc1` [Sulcaine], the “CYP2C19 AC50” value at human CYP2C19 is “Inactive”. Also, the AC50 on human CYP2D6 turned out to be 16.8 µM; on CYP3A4 it was 26.4 µM; at human CYP1A2, 22.2 µM; at human CYP2C9 it was 37.8 µM.

Take `O=C(OCCOCCOCCOC(=O)c1ccccc1)c1ccccc1` [Triethylene glycol dibenzoate]: the AC50 on human CYP2C19 is 20.8 µM; at human CYP1A2 it was 17.8 µM; at human CYP2C9 it was 2.75 µM. Further, the “CYP2D6 AC50” value at human CYP2D6 was “Inconclusive inhibitor”. Also, at CYP3A4, the “CYP3A4 AC50” value is given as “Inactive”.

For `O=C(Cl)c1cc(Cl)cc(Cl)c1` [3,5-Dichlorobenzoyl chloride], on human CYP2C19, the “CYP2C19 AC50” value was “Inconclusive inhibitor”. At human CYP2D6, the “CYP2D6 AC50” value was “Inactive”. Besides, the activity on CYP3A4 was half-maximal at 50.2 µM (AC50). For the same compound, the “CYP1A2 AC50” value on human CYP1A2 is “Inactive”. Also, the “CYP2C9 AC50” value at human CYP2C9 was “Inconclusive inhibitor”.

Regarding `CCOC(=O)c1ccc(N(C)C)cc1` [Parbenate], the AC50 on human CYP2C19 worked out at 21.6 µM; at CYP3A4 it was 47.9 µM; on human CYP1A2, 4.68 µM; on human CYP2C9 it was 31.9 µM. The “CYP2D6 AC50” value on human CYP2D6 is reported as “Inactive”.

For the compound `C1CC(COCC2CO2)CCC1COCC1CO1` (centres unmarked), the “CYP2C19 AC50” value on human CYP2C19 was “Inconclusive inhibitor”. In addition, the “CYP2D6 AC50” value at human CYP2D6 is “Inactive”. The figures for the AC50 on CYP3A4 and at human CYP2C9 were 73.9 µM and 56.6 µM, respectively. On human CYP1A2, the “CYP1A2 AC50” value is on record as “Inconclusive inhibitor”.

For `N#CCc1ccc(Cl)cc1Cl` [(2,4-Dichlorophenyl)acetonitrile], the AC50 on human CYP2C19 is 50.4 µM; on CYP3A4 it was 13.3 µM; on human CYP1A2, 23.4 µM. On human CYP2D6, the “CYP2D6 AC50” value is “Inactive”. For the same compound, the “CYP2C9 AC50” value on human CYP2C9 is given as “Inactive”.

`O=S(=O)(O)c1cc(Cl)c(Cl)cc1Cl` [2,4,5-Trichlorobenzenesulfonic acid]: the “CYP2C19 AC50” value on human CYP2C19 is recorded as “Inconclusive inhibitor”. On human CYP2D6, the “CYP2D6 AC50” value is given as “Inconclusive”. For the same compound, the values for the AC50 on CYP3A4 and on human CYP2C9 were 48.3 µM and 33 µM, respectively. In addition, the “CYP1A2 AC50” value on human CYP1A2 was “Inconclusive inhibitor”.
